The results in this text go back to publication PMC4877007, “A Minimal Threshold of c-di-GMP Is Essential for Fruiting Body Formation and Sporulation in Myxococcus xanthus” (PLoS Genetics, 2016).

The target of one experiment is T1, DmxB (Myxococcus xanthus, UniProt Q1D603, R210A).
T1 construct: gene MXAN_3735; full-length, DmxB-His6 from pET24b(+) (pDJS30), made in E. coli Rosetta 2(DE3), Ni-NTA; N-terminal receiver, C-terminal GGDEF
The experiment is described as follows: TLC of [α-32P]-GTP products (diguanylate cyclase assay). Format: biochemical. The settings on record: labelled compound; I-site mutant; 1 mM GTP, 10 μM protein, 10 mM MgCl2, 300 mM NaCl, pH 8.0, 30°C.

The target in the next experiment is T2, EpsI/Nla24 (Myxococcus xanthus, UniProt Q1CVM8).
T2 construct: calculated 50 kDa; receiver, AAA+ and HTH domains
T2 sequence (Q1CVM8 entry or part of it): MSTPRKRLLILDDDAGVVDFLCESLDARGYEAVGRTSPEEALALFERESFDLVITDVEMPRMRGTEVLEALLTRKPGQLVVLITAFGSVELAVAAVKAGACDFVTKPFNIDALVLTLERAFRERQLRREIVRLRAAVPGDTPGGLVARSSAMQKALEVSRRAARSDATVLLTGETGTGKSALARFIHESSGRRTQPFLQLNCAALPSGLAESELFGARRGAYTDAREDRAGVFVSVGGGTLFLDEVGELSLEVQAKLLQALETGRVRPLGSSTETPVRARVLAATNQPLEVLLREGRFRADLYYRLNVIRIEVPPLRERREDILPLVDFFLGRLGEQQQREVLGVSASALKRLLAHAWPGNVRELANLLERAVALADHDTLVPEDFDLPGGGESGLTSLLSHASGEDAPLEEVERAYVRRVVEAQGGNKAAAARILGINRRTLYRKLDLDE
In words: SPR (Biacore T200), steady-state affinity fit. Format: binding. The settings on record: labelled compound: biotinylated c-di-GMP immobilised on streptavidin chip, protein as analyte; paper states KD as that of c-di-GMP; 10 mM HEPES, 150 mM NaCl, 2 mM MgCl2, pH 6.8, 25°C.

T1 sequence (Q1D603 entry or part of it R210A): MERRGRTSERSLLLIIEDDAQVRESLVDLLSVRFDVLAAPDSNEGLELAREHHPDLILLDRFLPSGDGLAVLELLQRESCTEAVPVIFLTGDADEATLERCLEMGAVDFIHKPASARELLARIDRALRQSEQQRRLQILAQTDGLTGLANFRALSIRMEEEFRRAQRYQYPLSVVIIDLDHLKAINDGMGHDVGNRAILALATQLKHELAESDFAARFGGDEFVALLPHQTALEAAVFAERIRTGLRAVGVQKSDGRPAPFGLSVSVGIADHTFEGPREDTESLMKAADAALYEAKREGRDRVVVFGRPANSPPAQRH

For the compound `Nc1nc2c(ncn2[C@@H]2O[C@H](COP(=O)(O)OP(=O)(O)OP(=O)(O)O)[C@@H](O)[C@H]2O)c(=O)[nH]1` [GTP], the “TLC of [α-32P]-GTP products (diguanylate cyclase assay)” value at DmxB is “the I-site mutant had slightly increased DGC activity in vitro in comparison to the WT”.

Take biotinylated c-di-GMP: at EpsI/Nla24, binding was put at a Kd of 530 ± 60 nM.

The Kd is the equilibrium constant for the complex coming apart.
